According to patent publication EP3057951B1, “METHYLENE LINKED QUINOLINYL MODULATORS OF ROR-GAMMA-T” (Janssen Pharmaceutica NV, priority 2013, dated 2015):
Counter-ions that a name gives are not always drawn. Like-named read-outs stand apart in the source and are kept apart here.

Key:
[1] = target: T1, wild type human RORγt ligand binding domain (RORyt LBD) (Homo sapiens, UniProt P51449); experiment: RORγt ThermoFluor assay (thermal shift, binding affinity KD)
T1 construct: His-tag (N); TurboTEV protease cleavage site (ENLYFQG) (N); made in house; host or cells: E. coli (pHIS1, modified pET vector)
T1 sequence (P51449 258-518): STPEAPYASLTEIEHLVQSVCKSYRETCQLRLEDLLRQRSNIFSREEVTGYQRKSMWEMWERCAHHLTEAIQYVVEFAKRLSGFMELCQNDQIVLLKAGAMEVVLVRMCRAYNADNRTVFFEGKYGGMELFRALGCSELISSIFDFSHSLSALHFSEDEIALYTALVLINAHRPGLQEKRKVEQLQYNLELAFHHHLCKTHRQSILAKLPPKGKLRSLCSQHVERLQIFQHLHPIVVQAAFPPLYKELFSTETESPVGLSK

[2] = target: T2, wild type human RORγt LBD (Homo sapiens, UniProt P51449); experiment: RORγt (LBD) Reporter Assay (GAL4-luciferase, HEK293T cells); assay type: cell-based; conditions: for inhibition at 6 µM: HEK-293T, read-out: RORγt (LBD) Reporter Assay, % inhibition @ 6 µM, 6 µM compound concentration
T2 construct: expressed in transfected cells; host or cells: HEK293T
T2 sequence (P51449 258-518): T1 sequence (P51449 258-518)

Row | SMILES | Kd [1] [nM] | further results
1 | Cc1nc2ccc(C(O)(c3ccc(C(F)(F)F)nc3)c3cncn3C)cc2c(Cl)c1Cc1ccc(C(F)(F)F)cc1 (single isomer, unassigned) [Example 26b, (4-Chloro-2-methyl-3-(4-(trifluoromethyl)benzyl)quinolin-6-yl)(1-methyl-1H-imidazol-5-yl)(6-(trifluoromethyl)pyridin-3-yl)methanol] | 15 | 
2 | Cc1nc2ccc(C(O)(c3ccc(C(F)(F)F)nc3)c3cncn3C)cc2c(Cl)c1Cc1ccc(C(F)(F)F)cc1 (single isomer, unassigned) [Example 26c, (4-Chloro-2-methyl-3-(4-(trifluoromethyl)benzyl)quinolin-6-yl)(1-methyl-1H-imidazol-5-yl)(6-(trifluoromethyl)pyridin-3-yl)methanol] | 0.77 | 
3 | CC(=O)N1CCC(C(O)(c2ccccc2)c2ccc3nc(C)c(Cc4ccc(C(F)(F)F)cc4)c(Cl)c3c2)CC1 (single isomer, unassigned) [Example 27b, 1-(4-((4-Chloro-2-methyl-3-(4-(trifluoromethyl)benzyl)quinolin-6-yl)(hydroxy)(phenyl)methyl)piperidin-1-yl)ethanone] | 0.63 | 
4 | CC(=O)N1CCC(C(O)(c2ccccc2)c2ccc3nc(C)c(Cc4ccc(C(F)(F)F)cc4)c(Cl)c3c2)CC1 (single isomer, unassigned) [Example 27c, 1-(4-((4-Chloro-2-methyl-3-(4-(trifluoromethyl)benzyl)quinolin-6-yl)(hydroxy)(phenyl)methyl)piperidin-1-yl)ethanone] | 14 | 
5 | Cc1nc2ccc(C(O)(c3ccnc(C(F)(F)F)c3)c3cncn3C)cc2c(Cl)c1Cc1ccc(C(F)(F)F)cc1 (single isomer, unassigned) [Example 30b, (4-Chloro-2-methyl-3-(4-(trifluoromethyl)benzyl)quinolin-6-yl)(1-methyl-1H-imidazol-5-yl)(2-(trifluoromethyl)pyridin-4-yl)methanol] | 300 | 
6 | Cc1nc2ccc(C(O)(c3ccnc(C(F)(F)F)c3)c3cncn3C)cc2c(Cl)c1Cc1ccc(C(F)(F)F)cc1 (single isomer, unassigned) [Example 30c, (4-Chloro-2-methyl-3-(4-(trifluoromethyl)benzyl)quinolin-6-yl)(1-methyl-1H-imidazol-5-yl)(2-(trifluoromethyl)pyridin-4-yl)methanol] | 0.092 | 
7 | CC(=O)N1CC(C(O)(c2ccc3nc(C)c(Cc4ccc(C(F)(F)F)cc4)c(Cl)c3c2)c2cnnn2C)C1 (single isomer, unassigned) [Example 32b, 1-(3-((4-Chloro-2-methyl-3-(4-(trifluoromethyl)benzyl)quinolin-6-yl)(hydroxy)(1-methyl-1H-1,2,3-triazol-5-yl)methyl)azetidin-1-yl)ethanone] | 0.86 | 
8 | CC(=O)N1CC(C(O)(c2ccc3nc(C)c(Cc4ccc(C(F)(F)F)cc4)c(Cl)c3c2)c2cnnn2C)C1 (single isomer, unassigned) [Example 32c, 1-(3-((4-Chloro-2-methyl-3-(4-(trifluoromethyl)benzyl)quinolin-6-yl)(hydroxy)(1-methyl-1H-1,2,3-triazol-5-yl)methyl)azetidin-1-yl)ethanone] | 1.3 | 
9 | CCc1nc2ccc(C(O)(c3cnnn3C)C3CCOCC3)cc2c(Cl)c1Cc1ccc(C(F)(F)F)cc1 (single isomer, unassigned) [Example 33b, (4-Chloro-2-ethyl-3-(4-(trifluoromethyl)benzyl)quinolin-6-yl)(1-methyl-1H-1,2,3-triazol-5-yl)(tetrahydro-2H-pyran-4-yl)methanol] | 0.08 | 
10 | CCc1nc2ccc(C(O)(c3cnnn3C)C3CCOCC3)cc2c(Cl)c1Cc1ccc(C(F)(F)F)cc1 (single isomer, unassigned) [Example 33c, (4-Chloro-2-ethyl-3-(4-(trifluoromethyl)benzyl)quinolin-6-yl)(1-methyl-1H-1,2,3-triazol-5-yl)(tetrahydro-2H-pyran-4-yl)methanol] | 0.84 | 
11 | CCc1nc2ccc(C(O)(c3cnc(C)n3C)C3CCOCC3)cc2c(Cl)c1Cc1ccc(C(F)(F)F)cc1 (single isomer, unassigned) [Example 34b, (4-Chloro-2-ethyl-3-(4-(trifluoromethyl)benzyl)quinolin-6-yl)(1,2-dimethyl-1H-imidazol-5-yl)(tetrahydro-2H-pyran-4-yl)methanol] | 0.03 | 
12 | CCc1nc2ccc(C(O)(c3cnc(C)n3C)C3CCOCC3)cc2c(Cl)c1Cc1ccc(C(F)(F)F)cc1 (single isomer, unassigned) [Example 34c, (4-Chloro-2-ethyl-3-(4-(trifluoromethyl)benzyl)quinolin-6-yl)(1,2-dimethyl-1H-imidazol-5-yl)(tetrahydro-2H-pyran-4-yl)methanol] | 6.8 | 
13 | CCN(CC)c1nc2ccc(C(O)(c3ccc(Cl)cc3)c3cncn3C)cc2c(C#N)c1Cc1ccc(-n2cccn2)cc1 (single isomer, unassigned) [Example 154b, 3-(4-(1H-pyrazol-1-yl)benzyl)-6-((4-chlorophenyl)(hydroxy)(1-methyl-1H-imidazol-5-yl)methyl)-2-(diethylamino)quinoline4-carbonitrile] |  | IC50 ([2]; HEK293T cells): 140 nM
14 | COc1nc2ccc(C(O)(c3oc(C)nc3C)c3cnnn3C)cc2c(Cl)c1Cc1ccc(C(F)(F)F)cc1 (single isomer, unassigned) [Example 156b, (4-chloro-2-methoxy-3-(4-(trifluoromethyl)benzyl)quinolin-6-yl)(2,4-dimethylozazol-5-yl)(1-methyl-1H-1,2,3-triazol-5-yl)methanol] |  | inhibition at 6 µM ([2]; HEK293T cells): 98%
15 | COc1nc2ccc(C(O)(c3oc(C)nc3C)c3cnnn3C)cc2c(Cl)c1Cc1ccc(C(F)(F)F)cc1 (single isomer, unassigned) [Example 156c, (4-chloro-2-methoxy-3-(4-(trifluoromethyl)benzyl)quinolin-6-yl)(2,4-dimethylozazol-5-yl)(1-methyl-1H-1,2,3-triazol-5-yl)methanol] |  | RORγt (LBD) Reporter Assay, % inhibition @ 6 µM ([2]; 6 µM compound concentration, HEK293T cells, 6 µM): 99%
16 | COc1nc2ccc(C(O)(c3ccc(C)nc3C)c3cnnn3C)cc2c(Cl)c1Cc1ccc(C(F)(F)F)nc1 (centres unmarked) [Example 40a, (4-Chloro-2-methoxy-3-((6-(trifluoromethyl)pyridin-3-yl)methyl)quinolin-6-yl)(2,6-dimethylpyridin-3-yl)(1-methyl-1H-1,2,3-triazol-5-yl)methanol] |  | inhibition at 6 µM [2]: 98%
17 | COc1nc2ccc(C(O)(c3cnnn3C)c3cnc(C)n3C)cc2c(C#N)c1Cc1ccc(C(F)(F)F)nc1 (centres unmarked) [Example 44a, 6-((1,2-Dimethyl-1H-imidazol-5-yl)(hydroxy)(1-methyl-1H-1,2,3-triazol-5-yl)methyl)-2-methoxy-3-((6-(trifluoromethyl)pyridin-3-yl)methyl)quinoline-4-carbonitrile] |  | IC50 ([2]; HEK293T cells, value after the comma with ∼, > or < could not be included in the average): 7.6 nM; inhibition at 6 µM [2]: 97%
18 | Cn1cncc1C(O)(c1ccc(Cl)cc1)c1ccc2nc(Cl)c(Cc3ccc(C(F)(F)F)cc3)c(Cl)c2c1 (centres unmarked) [Example 155, (4-chlorophenyl)(2,4-dichloro-3-(4-(trifluoromethyl)benzyl)quinolin-6-yl)(1-methyl-1H-imidazol-5-yl)methanol•TFA] |  | IC50 ([2]; HEK293T cells): 160 nM; inhibition at 6 µM ([2]; HEK293T cells): 88%

The next lines start with results.

Row | Kd [1] [nM] | SMILES | further results
19 | 3.3 | COc1nc2ccc(C(O)(c3ccc(C(F)(F)F)nc3)c3cnnn3C)cc2c(Cl)c1Cc1ccc(C(F)(F)F)cc1 (racemic) [Example 75a, (4-Chloro-2-methoxy-3-(4-(trifluoromethyl)benzyl)quinolin-6-yl)(1-methyl-1H-1,2,3-triazol-5-yl)(6-(trifluoromethyl)pyridin-3-yl)methanol] | 
20 | 5 | COc1nc2ccc(C(O)(c3cnnn3C)C3CN(C)C3)cc2c(Cl)c1Cc1ccc(C(F)(F)F)cc1 (racemic) [Example 90a, (4-Chloro-2-methoxy-3-(4-(trifluoromethyl)benzyl)quinolin-6-yl)(1-methyl-1H-1,2,3-triazol-5-yl)(1-methylazetidin-3-yl)methanol] | 
21 | 160 | Cc1ccc(C(O)(c2ccc3nc(C)c(Cc4ccc(C(F)(F)F)cc4)c(Cl)c3c2)c2cnnn2C)c(C)n1 (single isomer, unassigned) [Example 28b, (4-Chloro-2-methyl-3-(4-(trifluoromethyl)benzyl)quinolin-6-yl)(2,6-dimethylpyridin-3-yl)(1-methyl-1H-1,2,3-triazol-5-yl)methanol] | 
22 | 0.12 | Cc1ccc(C(O)(c2ccc3nc(C)c(Cc4ccc(C(F)(F)F)cc4)c(Cl)c3c2)c2cnnn2C)c(C)n1 (single isomer, unassigned) [Example 28c, (4-Chloro-2-methyl-3-(4-(trifluoromethyl)benzyl)quinolin-6-yl)(2,6-dimethylpyridin-3-yl)(1-methyl-1H-1,2,3-triazol-5-yl)methanol] | 
23 | 0.04 | Cc1nc2ccc(C(O)(c3cnnn3C)c3cnc(C)n3C)cc2c(Cl)c1Cc1ccc(C(F)(F)F)cc1 (single isomer, unassigned) [Example 29b, (4-Chloro-2-methyl-3-(4-(trifluoromethyl)benzyl)quinolin-6-yl)(1,2-dimethyl-1H-imidazol-5-yl)(1-methyl-1H-1,2,3-triazol-5-yl)methanol] | 
24 | 0.15 | Cc1nc2ccc(C(O)(c3cnnn3C)c3cnc(C)n3C)cc2c(Cl)c1Cc1ccc(C(F)(F)F)cc1 (single isomer, unassigned) [Example 29c, (4-Chloro-2-methyl-3-(4-(trifluoromethyl)benzyl)quinolin-6-yl)(1,2-dimethyl-1H-imidazol-5-yl)(1-methyl-1H-1,2,3-triazol-5-yl)methanol] | 
